From patent US4164571A, “Medicament which antagonizes the action of gastrin and related polypeptides” (Commissariat a l'Energie Atomique, priority 1976, dated 1979)
Read-outs that look alike come from different tables or passages of the source.

Columns and labels:
mice = conditions: for number of death cases: group of ten mice
From the text: All the dead or surviving animals are autopsied, the stomach and the small intestine are examined for heamorrhages or ulcers.

[1] = tested on: stimulated secretion of gastric juice; assay: stimulated gastric acid secretion in anaesthetised perfused rats (Ghosh and Schild, modified by Lai), intravenous injection; assay type: in vivo, rat; conditions: for % inhibition of gastrin I stimulated acid secretion / % inhibition of pentagastrin stimulated acid secretion: i.v.
Procedure: A first series of experiments was carried out on male Wistar rats weighing 300 to 325 g. The procedure used was that of Ghosh and Schild, modified by Lai. The rats fasted for the 18 hours preceding the test. On the day of the test the rats were anaesthesized with urethane by the intraperitoneal route at a rate of 1.20 g of urethane per kilogramme. The rectal temperature was maintained at 34°±1° C. by means of an anal probe connected to a thermometer which electronically controlled the lighting up of a 100 Watt lamp positioned above each rat. An oesophageal probe (polyethylene catheter) was introduced up to the oesophagus--rumen junction of the rat and another catheter was introduced into the pyloric opening via the duodenum. The stomach was perfused with a solution of physiological serum introduced by means of the oesophageal tube at a constant speed of 1 ml/mn and was collected every ten minutes by the pyloroduodenal probe.
The rats prepared in this way were left to rest for a period of at least 45 minutes. The perfusate sampled every 10 minutes was then determined by means of a 0.01 N soda solution at pH 8.45, corresponding to a phenolphthalein colour change or at pH 7.4 with an automatic titration apparatus at constant pH.
After determining the basal acid secretion of the gastric juice on at least four consecutive samples a dose of gastrin was intravenously administered to the rats in the vein of the penis and subsequently the response to this stimulation was recorded until the secretion returned to the basal level over a period of at least twice 10 minutes. […] The results are expressed in microequivalents of hydrochloric acid per 40 minutes and are calculated as follows: either as the number of secreted microequivalents after stimulation less the number of microequivalents secreted in the 40 minutes prior to the injection of the dose, or as an acid peak, i.e., taking the average of the two consecutive maximum responses for each dose less the average value for the two basal values preceding the injection.
The transformation into double inverse makes it possible by analogy with enzymatic reactions to conclude whether the inhibition is of the competitive type or not.

[2] = tested on: stimulated secretion of gastric juice; assay: gastric acid secretion in rats under continuous intravenous perfusion; assay type: in vivo, rat
Procedure: In a second series of experiments an intravenous perfusion of an isotonic solution of […] sodium chloride was administered at a rate of 2.4 ml/h to rats prepared in the manner indicated hereinbefore according to the procedure of Ghosh and Schild, modified by Lai. This perfusion was administered to the vein of the penis.
The rats prepared in this manner were left at rest for at least 45 minutes, then the acidity was determined as hereinbefore on the gastric perfusate sampled every 10 minutes. […] At the end of the first hour a dose of gastrin I was added to the perfusion. The results obtained are given in FIG. 5a showing the variations of the gastric secretion as a function of time.

Molecule: CSCC[C@H](NC(=O)[C@H](Cc1c[nH]c2ccccc12)NC(=O)CCNC(=O)OC(C)(C)C)C(=O)N[C@@H](CC(=O)O)C(=O)N[C@@H](Cc1ccccc1)C(N)=O [pentagastrin, Boc-Gly-Trp-Met-Asp-phe-NH2, reference compound]
- number of death cases (mice; 1280 μg/kg i.p., 2 h): 1
- number of death cases (mice; 1280 μg/kg i.p., 6 h): 1
- number of death cases (mice; 2560 μg/kg i.p., 2 h): 2
- number of death cases (mice; 2560 μg/kg i.p., 48 h): 1
- dose at which digestive hemorrhages are observed (mice; i.p., importance increases with the dose): ≥ 0.32 mg/kg
- LD 50 (mice; i.p., logit-log paper): higher than 3.2 mg/kg

Molecule: orthonitrophenyl sulphenylated gastrin I [gastrin I-NPS]
- type of inhibition of gastrin I response (double inverse representation) ([1]; 100 or 200 ng gastrin I-NPS with each dose of gastrin I): inhibition is competitive
- % inhibition of gastrin I stimulated acid secretion ([1]; ratio gastrin I-NPS/gastrin I 1/1, 50 ng gastrin NPS with 50 ng gastrin I): 100%
- % inhibition of gastrin I stimulated acid secretion ([1]; ratio gastrin I-NPS/gastrin I 1/2, 50 ng gastrin NPS with 100 ng gastrin I): 75%
- % inhibition of gastrin I stimulated acid secretion ([1]; ratio gastrin I-NPS/gastrin I 1/3, 50 ng gastrin NPS with 150 ng gastrin I): 65%
- % inhibition of gastrin I stimulated acid secretion ([1]; ratio gastrin I-NPS/gastrin I 1/4, 50 ng gastrin NPS with 200 ng gastrin I): < 35%
- time until stimulated secretion plateau after introduction of gastrin I ([2]; 100 ng/h gastrin I-NPS with 200 ng/h gastrin I, plateau at a lower level): 30 min
- time until stimulated secretion plateau after introduction of gastrin I ([2]; 100 ng/h gastrin I-NPS with 400 ng/h gastrin I, plateau reaches the level of 100 ng/h gastrin I): 40 min
- secretory response to the substance alone ([2]; 100 ng/h in intravenous perfusion): causes no secretory response

Molecule: Boc-Gly-Trp-(NPS)-Met-Aspe-Phe-NH2 [pentagastrin-NPS]
- inhibition of pentagastrin action ([1]; pentagastrin-NPS associated with pentagastrin): inhibits the pentagastrin action
- % inhibition of pentagastrin stimulated acid secretion ([1]; ratio pentagastrin-NPS/pentagastrin 1/1, 50 ng pentagastrin-NPS with 50 ng pentagastrin): 100%
- % inhibition of pentagastrin stimulated acid secretion ([1]; ratio pentagastrin-NPS/pentagastrin 1/2, 50 ng pentagastrin-NPS with 100 ng pentagastrin): 100%
- % inhibition of pentagastrin stimulated acid secretion ([1]; ratio pentagastrin-NPS/pentagastrin 1/3, 50 ng pentagastrin-NPS with 150 ng pentagastrin): 75%
- % inhibition of pentagastrin stimulated acid secretion ([1]; ratio pentagastrin-NPS/pentagastrin 1/4, 50 ng pentagastrin-NPS with 200 ng pentagastrin): < 20%
- number of death cases (mice; 1280 μg/kg i.p., 24 h): 1
- petechiae at autopsy (mice; 2560 μg/kg i.p.): a few petechiae are observed
- number of death cases (mice; 2560 μg/kg i.p., 6 h): 1
- number of death cases (mice; 2560 μg/kg i.p., 24 h): 1
- number of death cases (mice; 2560 μg/kg i.p., 48 h): 2
- digestive hemorrhage at autopsy (mice; 160 to 2560 μg/kg i.p.): does not lead to any digestive hemorrhage
- doses leading to no modifications (petechiae) of the stomach and of the intestine (mice; i.p.): under 2,5 mg/kg
